Experimental data reported in ChEMBL document CHEMBL3600281, “Synthesis and anticancer properties of new (dihydro)pyranonaphthoquinones and their epoxy analogs” (Bioorg Med Chem Lett, 2015).
Calls of active or inactive are those of the source. The calls are words filed in the database; no cut-off is given here.

Tests used:
KB = experiment: Cytotoxicity against human KB cells; assay type: functional, cell-based
HepG2 = experiment: Cytotoxicity against human HepG2 cells; assay type: functional, cell-based
MCF7 = experiment: Cytotoxicity against human MCF7 cells; assay type: functional, cell-based
[1] = Cytotoxicity against human Lu cells; assay type: functional, cell-based
Bacillus subtilis = experiment: Antibacterial activity against Bacillus subtilis; assay type: functional, organism-based
Staphylococcus aureus = experiment: Antibacterial activity against Staphylococcus aureus; assay type: functional, organism-based
Escherichia coli = experiment: Antibacterial activity against Escherichia coli; assay type: functional, organism-based
Pseudomonas aeruginosa = experiment: Antibacterial activity against Pseudomonas aeruginosa; assay type: functional, organism-based
Candida albicans = experiment: Antifungal activity against Candida albicans; assay type: functional, organism-based

Structure (SMILES) | IC50 (KB) [µM] | IC50 (HepG2) [µM] | IC50 (MCF7) [µM] | IC50 [1] [µM] | Activity (Bacillus subtilis) | Activity (Staphylococcus aureus) | Activity (Escherichia coli) | Activity (Pseudomonas aeruginosa) | Activity (Candida albicans)
CC1=C[C@@]23O[C@]2(CO1)C(=O)c1ccccc1C3=O | > 41.3 | > 41.3 | > 41.3 | > 41.3 | inactive | inactive | inactive | inactive | inactive
O=C1C2=C(CC(c3ccccc3)OC2)C(=O)c2ccccc21 (centres undefined) | 16.1 | 18.7 | 27.2 | > 34.4 | inactive | inactive | inactive | inactive | inactive
O=C1c2ccccc2C(=O)[C@]23COC(c4ccc(F)cc4)=C[C@]12O3 | > 31 | > 31 | > 31 | > 31 | inactive | inactive | inactive | inactive | inactive
O=C1c2ccccc2C(=O)[C@]23COC(c4ccc(F)cc4)C[C@]12O3 (some centres undefined) | > 30.8 | > 30.8 | > 30.8 | > 30.8 | inactive | inactive | inactive | inactive | inactive
O=C1C2=C(CC(c3ccc(F)cc3)OC2)C(=O)c2ccccc21 (centres undefined) | 20.6 | 23.4 | > 32.4 | 22.1 | inactive | inactive | inactive | inactive | inactive
CC(C)C1CC2=C(CO1)C(=O)c1ccccc1C2=O (centres undefined) | 17.5 | 19.8 | 26.2 | > 39 | inactive | inactive | inactive | inactive | inactive
CC(C)C1C[C@@]23O[C@]2(CO1)C(=O)c1ccccc1C3=O (some centres undefined) | > 32.6 | > 32.6 | > 32.6 | > 32.6 | inactive | inactive | inactive | inactive | inactive
CC1=CC2=C(CO1)C(=O)c1ccccc1C2=O | 5.6 | 6.7 | 29.5 | 13.1 | inactive | Active | inactive | inactive | inactive
CC1CC2=C(CO1)C(=O)c1ccccc1C2=O (centres undefined) | 25.3 | 22.5 | 22.1 | 23.2 | inactive | inactive | inactive | inactive | inactive
CC1C[C@@]23O[C@]2(CO1)C(=O)c1ccccc1C3=O (some centres undefined) | > 41 | > 41 | > 41 | > 41 | inactive | inactive | inactive | inactive | inactive
O=C1c2ccccc2C(=O)[C@]23COC(c4ccccc4)=C[C@]12O3 | > 32.9 | > 32.9 | > 32.9 | > 32.9 | inactive | inactive | inactive | inactive | inactive
CC(C)C1=CC2=C(CO1)C(=O)c1ccccc1C2=O | 4.1 | 10.7 | 6.7 | 14.9 | inactive | Active | inactive | inactive | inactive
Cc1c2ccncc2c(C)c2c1[nH]c1ccccc12 [ELLIPTECINE] |  | 1.3 | 1.8 | 2.2 |  |  |  |  | 
O=C1C2=C(COC(c3ccccc3)=C2)C(=O)c2ccccc21 | 7.5 | 12.2 | > 34.7 | > 34.7 | inactive | inactive | inactive | inactive | inactive
O=C1C2=C(COC(c3ccc(F)cc3)=C2)C(=O)c2ccccc21 | 1.5 | 3.6 | 12.9 | 11.5 | inactive | inactive | inactive | inactive | inactive
